# Test results from article PMC9669616, “The recommended dosage regimen for caspofungin in patients with higher body weight or hypoalbuminaemia will result in low exposure: Five years of data based on a population pharmacokinetic model and Monte-Carlo simulations” (Frontiers in Pharmacology, 2022).
# Read-outs that look alike come from different tables or passages of the source.
# Columns and labels:
# [1] = general population pharmacokinetic (PPK) model, all patients; assay type: in vivo, human; set-up: AUC: concentration or dose not given beside the values; settings: for AUC / clearance: general PPK model, mean ± SD (range)
# Experimental: The patients for the general PPK model came from a single-center, and the study was conducted from June 2014 to June 2019 at the First Affiliated Hospital of Xi’an Jiaotong University. Patients who had been diagnosed with confirmed or probable candidiasis and been treated with caspofungin were included in the study. The identification of infection was according to the IFIs Cooperative Group and the National Institute of Allergy and Infectious Diseases Mycoses Study Group criteria ([De Pauw et al., 2008]). All patients were divided into four groups (ICU patients, SOT patients, HEMT patients, and other patients from respiratory department). Caspofungin was administered intravenously over 1 h. Most of the patients received the standard dosage regimen of 70/50 mg. Patients with hepatic insufficiency (Child-Pugh B) received a reduced dosage regimen of 70/35 mg and patients with body weight (WT) > 75 kg received an increased dosage regimen of 70/70 mg. The study protocol was approved by the institutional review board of the teaching hospital (No.XJTU1AF2017LSK-28). All subjects signed the informed consent before any screening item being performed. History of hypersensitivity, severe intolerance to caspofungin, other constituents change resulted from caspofungin, age <18 years and pregnancies were excluded in the study.
# Factors which may influence the PK parameters of caspofungin were collected for the patients of the general PPK model from the teaching hospital. The factors included demographic factors (sex, age and WT); medical characteristics [carrier mediated transportation (CMT), surgical operation (SOP), baseline disease, organ support therapy]; laboratory data [red blood cells, hemoglobin, hematocrit, white blood cell, lymphocyte, neutrophile, platelets, alanine aminotransferase, aspartate transaminase, alkaline phosphatase, gamma-glutamyl transpeptidase, total bilirubin, albumin (ALB), blood urea nitrogen, uric acid, serum creatinine acid, creatinine clearance rate]; concomitant medications (immunosuppressants, glucocorticoid, antimicrobial agents and antivirals) and other related factors. Because we could not obtain all values of ICU patients for the seven literature studies, only factors which may have a great influence on the PK of caspofungin, such as sex, age, WT, dosage and method of administration, ALB concentrations and whether concomitant continuous renal replacement therapy (CRRT) of ICU patients from the teaching hospital and other seven studies were collected for the construction of the ICU-subgroup PPK model. The selection criteria were based on the results obtained from previous studies of factors influencing the caspofungin plasma concentration ([Spriet et al., 2009]; [Spriet et al., 2011]; [Weiler et al., 2013]; [Muilwijk et al., 2014]; [Sinnollareddy et al., 2015]; [Roger et al., 2017]; [van der Elst et al., 2017]). […] Combined with the clinical situation, the ALB and WT were converted into dichotomous variables according to whether the ALB <35 g/L or ≥35 g/L and whether the WT < 70 kg or ≥70 kg, respectively.
# We collected the pooled data of caspofungin plasma samples from patients at the teaching hospital who received caspofungin prevention or treatment therapies from June 2014 to June 2019. Caspofungin plasma C min samples were collected at interval windows of 22–24 h post-dose, while other caspofungin plasma samples were collected at interval windows of 0–12 h and 12–22 h post-dose. The caspofungin plasma concentrations from the other seven studies of ICU patients—which included both dense sampling and sparse sampling—were directly collected from the relevant published papers, and all related caspofungin plasma concentrations were collected ([Spriet et al., 2009]; [Spriet et al., 2011]; [Weiler et al., 2013]; [Muilwijk et al., 2014]; [Sinnollareddy et al., 2015]; [Roger et al., 2017]; [van der Elst et al., 2017]). […]
# [2] = healthy subjects; ref Stone et al., 2002; cited from earlier work
# Description: Van den Elst et al. found the caspofungin exposure in ICU patients was low compared with that in healthy volunteers and other (non)critically ill patients ([van der Elst et al., 2017]). Many factors could influence the caspo ...
# [3] = cited from earlier work
# Description: Safety also needs to be considered when increasing the caspofungin exposure, because any harm to the patient should be minimal.
# C. parapsilosis = settings: ref Li et al., 2013; cited from earlier work
# Description: (§1) The first goal of this study was to determine whether the contemporary dosage regimens for caspofungin can achieve the target PK/PD index against Candida isolates in all patients and especially in ICU patients. […] At present, the relationship between caspofungin Cmax and toxicity remains poorly clarified ([Kim et al., 2022]). In this study, we only used the fAUC/MIC as caspofungin PK/PD target for we could get th ...
# C. glabrata = settings: ref Li et al., 2013; cited from earlier work
# Description: as §1
# C. albicans = settings: ref Li et al., 2013; cited from earlier work
# Description: as §1
# ALB = settings: cited from earlier work
# Description: The final general and ICU-subgroup PPK models of caspofungin were used for the simulation study to evaluate the degree of exposure. A MCS method published before ([Pfaller et al., 2006]) was used for analyzing the probability of target attainment (PTA) and cumulative fraction of response (CFR) following various caspofungin dosage regimens in all patients and ICU patients. […] Caspofungin was extensively bound to ALB (97%) ([Stone ...
# [4] = cited from earlier work; remark: listed apart in the source
# Description: Van den Elst et al. found the caspofungin exposure in ICU patients was low compared with that in healthy volunteers and other (non)critically ill patients ([van der Elst et al., 2017]).
# [5] = all patients n = 299, final model
# [6] = human, plasma, iv, ICU patients of the teaching hospital
# [7] = human, plasma, iv, all patients n = 299
# [8] = human, plasma, iv, hematopathy patients
# [9] = human, plasma, iv, other patients
# [10] = human, plasma, iv, transplant (SOT) patients
compound,measurement,setting,value
CC[C@H](C)C[C@H](C)CCCCCCCCC(=O)N[C@H]1C[C@@H](O)[C@@H](NCCN)NC(=O)[C@@H]2[C@@H](O)CCN2C(=O)[C@H]([C@H](O)CCN)NC(=O)[C@H]([C@H](O)[C@@H](O)c2ccc(O)cc2)NC(=O)[C@@H]2C[C@@H](O)CN2C(=O)[C@H]([C@@H](C)O)NC1=O [caspofungin],"θ1, typical population value of CL",[1]; [5],0.32 L/h
same,"θ4, influence of ALB (<35 g/L) on V",[1]; [5],0.49
same,"θ6, influence of WT (≥70 kg) on V",[1]; [5],0.24
same,"θ4, influence of ALB (<35 g/L) on V","[1]; all patients, bootstrap, lower boundary of 95% CI",0.25
same,"θ4, influence of ALB (<35 g/L) on V","[1]; all patients, bootstrap, upper boundary of 95% CI",0.73
same,AUC,[1]; [6],101 µg·h/mL
same,clearance,[1]; [6],7.83 mL/min
same,AUC,[1]; [7],126 µg·h/mL
same,clearance,[1]; [7],7 mL/min
same,AUC,[1]; [8],118 µg·h/mL
same,clearance,[1]; [8],7.5 mL/min
same,AUC,[1]; [9],120 µg·h/mL
same,clearance,[1]; [9],6.83 mL/min
same,AUC,[1]; [10],136 µg·h/mL
same,clearance,[1]; [10],6.67 mL/min
same,Vd,"[1]; human, plasma, iv, all patients n = 299, final model, read-out: θ2, typical population value of V",13.3 L
same,"plasma trough concentration (C min), range",[2],1120 to 1780 ng/mL
same,tolerability,"[3]; 150 mg daily for a median of 24.5 days, ref Cornely et al., 2011",well tolerated without dose-limiting toxicity
same,tolerability,"[3]; patients with invasive candidiasis, 150 mg daily, mean duration 14.2 days, ref Betts et al., 2009",well tolerated
same,"MIC, mean",C. parapsilosis,1.5 µg/mL
same,"MIC, range",C. parapsilosis,0.38 to 2 µg/mL
same,"MIC, mean",C. glabrata,0.25 µg/mL
same,"MIC, range",C. glabrata,0.047 to 0.38 µg/mL
same,"MIC, mean",C. albicans,0.19 µg/mL
same,"MIC, range",C. albicans,0.032 to 0.38 µg/mL
same,bound to ALB,"ALB; ref Stone et al., 2004",97%
same,protein binding value,"ALB; used to calculate free drug concentrations in the simulation, ref Andes et al., 2010",97%
same,"CL, typical value","[4]; ICU patients, day 1, ref Borsuk-De Moor et al., 2020",0.563 L/h
same,"CL, typical value","[4]; ICU patients, day 2, ref Borsuk-De Moor et al., 2020",0.737 L/h
same,"CL, typical value","[4]; ICU patients, day 3, ref Borsuk-De Moor et al., 2020",1.01 L/h
same,decrease in caspofungin exposure,"[4]; ICU patients, increasing clearance with subsequent doses, ref Borsuk-De Moor et al., 2020",> 20%
same,CL,"[4]; ICU patients, ref Martial et al., 2016",0.55 L/h
same,CL,"[4]; critically-ill Chinese patients, ref Li et al., 2021",0.32 L/h
same,CL,"[4]; general patients, ref Wurthwein et al., 2012",0.46 L/h
same,CL,"[4]; general patients, ref Wurthwein et al., 2013",0.40 L/h
